Measured values as given in paper PMC6563099, “Novel Thienopyrimidine Derivative, RP-010, Induces β-Catenin Fragmentation and Is Efficacious against Prostate Cancer Cells” (Cancers, 2019).
Read-outs that look alike come from different tables or passages of the source.

Legend:
DU145 [1] = assay: DAPI staining of nuclear changes, DU145; type: cell-based
Experimental: (§1) The nuclear changes in DU145 and PC-3 cells lines produced by RP-010 (1, 2 and 4 µM) incubation at 24 or 48 h were determined using DAPI staining. The cells were seeded on culture cover glasses in 6-well plates, and allowed to grow overnight. The cells were then incubated with RP-010, for an additional 24 h, at 37 °C. The incubated cells were fixed with 4% paraformaldehyde, followed by permeabilization with 1× PBS/0.3% Triton X-100 for 25 min. Finally, DAPI stain was added, and cells were photographed using the EVOS microscope.

[2] = test system: Wnt/β-catenin signaling pathway proteins in DU145 cells; assay: Western analysis of Wnt/β-catenin signaling pathway proteins, DU145; type: cell-based
Experimental: DU145 cells were incubated with RP-010 ((1 or 2 µM) for 24 h. Thereafter, the cells were subjected to a two-step lysis process to extract and separate the cytosolic and the nuclear proteins, as previously described. Next, protein separation for both cytosolic and nuclear proteins was achieved by electrophoresing the samples through acrylamide SDS-PAGE gels, followed by transfer to a PVDF membrane. The PVDF membrane was then incubated overnight with the following primary antibodies: rabbit α-tubulin, 1:4000 dilution, rabbit BAX (1:1000), rabbit BAK (1:1000), rabbit cytochrome c (1:1000), rabbit PARP (1:5000), rabbit β-Catenin (1:4000), rabbit DVL3 (1:4000), rabbit LRP-6 (1:1000), rabbit P-LRP-6 (1:1000), rabbit c-Myc (1: 4000), rabbit cyclin B1 (1:2000), rabbit Wnt 5a (1:1000), rabbit naked 1 and naked 2 (1:1000), mouse E-cadherin (1:4000), mouse N-cadherin (1:4000), mouse β-actin (1:5000) and rabbit histone (1:3000). Finally, protein expression levels were determined as described previously. In the Figure 3, Figure 5 and Figure S8, the protein blots above β-actin were cytosolic lysates, while all the proteins below β-actin and above histones (loading controls) were nuclear lysates.

HCT115 = test system: HCT115; parameters: method as in PMID 28759878; settings: colon cancer cell line; cited from earlier work
CRL-1459 = assay: MTT cytotoxicity assay, CRL-1459 normal colon epithelial cells; type: cell-based; settings: Homo sapiens, normal colon epithelial cell line, means ± SDs of three independent experiments, read-out: IC50 ± SD, Non-Prostate Cells, CRL-1459
Experimental: (§2) All the cells were cultured as adherent monolayers in culture flasks, and were used to determine the anti-cancer efficacy of RP-010. DMEM supplemented with 4.5 g of glucose, 10% fetal bovine serum (FBS) and 1% penicillin/streptomycin, was used to augment cell growth. Finally, the cells were incubated and grown in a humidified incubator containing 5% CO2 at 37 °C [50]. […] Cells were obtained from frozen stocks and cell passaging (up to P4) was performed at 80% cell confluency, using PBS and trypsin + 2.2-mM EDTA.
(§3) MTT assays were used to determine the cytotoxicity of the RP compounds, to PC cell lines, as previously described.

zebrafish = assay: Zebrafish toxicity model; type: in vivo
Experimental: The zebrafish toxicity studies were conducted as previously described. Five days-post fertilization larvae (5 fish/well) were exposed to vehicle or RP-010 (0, 0.3, 1, 3, 6, and 10 µM). Subsequently, the zebrafish were observed visually, and pictures were taken at 24- and 48-hour post exposure (hpe). […] The zebrafish studies were approved by the University of Toledo Institutional Animal Care and Use Committee (#105414, approved on 10/2018).

DU145 [3] = assay: Transwell migration assay, DU145; type: cell-based; settings: 0.5, 1 or 2 μM, 24 h
Experimental: (§4) The assay was done as previously described. The effect of RP-010, (0.5, 1 or 2 µM) on the migration of PC cells was tested using 24 trans-well inserts with an […] pore size. The addition of the insert to the well forms two chambers (upper and lower), where the upper chamber was used to grow the cells on the porous membrane. The lower chamber was filled with 600-μL cell-free DMEM medium. 200-μL of the cell suspension was added to each insert, and cells allowed to attach for 1 h. The test compound was added in different concentrations and incubated with the cells for 24 h. […] Finally, the remaining migrated cells were fixed by methanol, and stained with 0.1% crystal violet dye and counted with an EVOS microscope. The number of migrated cells was counted for the cultures incubated with vehicle or RP-010.

PC-3 [4] = assay: Wound healing assay, PC-3; type: cell-based; settings: 0.5, 1, 2 or 4 µM, 12-24 h, vs vehicle
Experimental: This assay was conducted using DU145 and PC-3 cells as previously described. Upon confluence, 200 μL sterile tips were used to create a wound by gently scratching the complete cell monolayer. Sterile PBS was used to wash the cells several times to remove any floating cells. Different concentrations of the test compound were prepared in the culture media and added immediately after wound formation. The closure of the wound was observed by taking pictures at different time points by the EVOS microscope (Thermo Fisher Scientific, Wayne, MI, USA). Finally, the area of the wounds, at different time points, was calculated using Image J software (NIH, Bethesda, MD, USA).

PC-3 [5] = assay: Transwell migration assay, PC-3; type: cell-based; settings: 24 h
Experimental: as §4

DU145 [6] = assay: Oxidative stress (H2DCFDA fluorescence), DU145; type: cell-based; settings: 0.5, 1, 2 or 4 µM, 24 h, vs vehicle
Experimental: The compound 2′,7′-dichlorofluorescin (H2DCFDA) was used to detect changes in the oxidative stress status, as previously described in PC-3 and DU145. […] The cells were then washed 3 times with 1× PBS for 5 min each. The level of reactive oxygen species was then measured, based on the fluorescence level of oxidized H2DCFDA dye (excitation at 485 nm and emission at 535 nm), using an EVOS digital fluorescent microscope at 40×.

PC-3 [7] = assay: DAPI staining of nuclear changes, PC-3; type: cell-based; settings: 24 and 48 h
Experimental: as §1

PC-3 [8] = assay: MTT cytotoxicity assay, PC-3 prostate cancer cells; type: cell-based; settings: MTT assay, means ± SDs of three independent experiments, read-out: IC50 ± SD, Prostate Cancer Cells, PC-3
Experimental: as §2, §3

[9] = DU145, 1 or 2 μM, 24 h, p < 0.01

Q: With `COc1ccc(-c2nc3sc4c(c3c(=O)[nH]2)CCCC4)cc1` [RP10] as the compound, how does the “Nuclear morphology (DAPI)” value (DU145 [1]; 1 µM, 24 h) read?
A: produced multinucleated cells

Q: What about the “Nuclear morphology (DAPI)” value (DU145 [1]; 1, 2 or 4 µM, 48 h) of the same compound?
A: primarily produced early stage apoptotic nuclear morphology

Q: And the “Nuclear morphology (DAPI)” value (DU145 [1]; 2 or 4 µM, 24 h)?
A: significantly increased numbers of highly condensed, fragmented nuclear chromatin

Q: What about the “Expression levels of N-cadherin” value ([2]; 1 and 2 µM) of the same compound?
A: did not significantly alter

Q: And the “Accumulation of lower molecular weight β-catenin fragments (P3, P4)” value ([2]; DU145, 1 or 2 μM, 24 h)?
A: increased the accumulation

Q: What about the “Fragmentation of full-length β-catenin (p92) into lower molecular weight fragments (≈70 kDa)” value ([2]; DU145, 1 or 2 μM, 24 h) of the same compound?
A: significant fragmentation

Q: And the “Levels of E-cadherin” value ([2]; DU145, 1 or 2 μM, 24 h)?
A: did not significantly alter

Q: And the “Levels of Wnt 5a” value ([2]; DU145, 1 or 2 μM, 24 h)?
A: no significant change

Q: And the “Levels of nuclear c-Myc” value ([2]; DU145, 1 or 2 μM, 24 h)?
A: significantly decreased

Q: And the “Levels of total active β-catenin” value ([2]; DU145, 1 or 2 μM, 24 h)?
A: significant decrease

Q: And the “Nuclear levels of Naked 1” value ([2]; DU145, 1 or 2 μM, 24 h)?
A: significantly increased

Q: What about the “Nuclear levels of Naked 2” value ([2]; DU145, 1 or 2 μM, 24 h) of the same compound?
A: significantly increased

Q: What about the “Nuclear levels of cyclin B1” value ([2]; DU145, 1 or 2 μM, 24 h) of the same compound?
A: not significantly altered

Q: What about the “Levels of cytosolic Naked 1” value ([2]; DU145, 1 or 2 μM, 24 h, p < 0.001) of the same compound?
A: significantly decreased

Q: And the “Cytosolic levels of cyclin B1” value [2, 9]?
A: decreased significantly

Q: What about the “Levels of DVL3” value [2, 9] of the same compound?
A: significantly decreased

Q: And the “Levels of cytosolic Naked 2” value [2, 9]?
A: significantly decreased

Q: What about the “Levels of phosphorylated LRP-6 (P-LRP-6)” value [2, 9] of the same compound?
A: significantly decreased

Q: And the “Levels of LRP-6” value ([2]; DU145, 1 or 2 μM, 24 h, p < 0.05)?
A: significantly decreased

Q: What about the IC50 (HCT115) of the same compound?
A: 700 ± 200 nM

Q: What about the IC50 (CRL-1459) of the same compound?
A: 73000 ± 5300 nM

Q: And the “Concentration well tolerated / without significant toxic effects” value (zebrafish; zebrafish)?
A: up to 6 µM

Q: And the Mortality (zebrafish; zebrafish larvae, 0.3, 1, 3, 6 or 10 µM, 24 and 48 h exposure)?
A: did not significantly increase

Q: And the “Number of cells migrating across the membrane (transwell)” value (DU145 [3])?
A: significantly decreased

Q: And the “Wound healing (cell migration)” value (PC-3 [4])?
A: significantly decreasing wound healing

Q: What about the Transwell migration (PC-3 [5]; 0.5 μM) of the same compound?
A: not significantly altered

Q: And the Transwell migration (PC-3 [5]; 1 or 2 μM, p < 0.05)?
A: significantly decreased

Q: And the “Reactive oxygen species (ROS) level” value (DU145 [6])?
A: significantly higher levels

Q: And the “Nuclear morphology (DAPI)” value (PC-3 [7]; 1 µM)?
A: significant increase in multinucleated cells

Q: What about the “Nuclear morphology (DAPI)” value (PC-3 [7]; 2 or 4 μM) of the same compound?
A: apoptosis

Q: What about the IC50 (PC-3 [8]; listed as RP-010) of the same compound?
A: < 1000 nM

Q: What about the IC50 (PC-3 [8]) of the same compound?
A: 300 ± 100 nM
